Data from the Kinase Knowledgebase extract (Sharma et al. 2016).
One block for each molecule: values may come before it.

Target: MAPK14 (human) (UniProt Q16539)
Assay: Inhibition of LPS Stimulated TNF Production by U937 Cells
Settings: for inhibition: concentration not given here

Chain of MAPK14 (human) (Q16539 whole entry, looked up): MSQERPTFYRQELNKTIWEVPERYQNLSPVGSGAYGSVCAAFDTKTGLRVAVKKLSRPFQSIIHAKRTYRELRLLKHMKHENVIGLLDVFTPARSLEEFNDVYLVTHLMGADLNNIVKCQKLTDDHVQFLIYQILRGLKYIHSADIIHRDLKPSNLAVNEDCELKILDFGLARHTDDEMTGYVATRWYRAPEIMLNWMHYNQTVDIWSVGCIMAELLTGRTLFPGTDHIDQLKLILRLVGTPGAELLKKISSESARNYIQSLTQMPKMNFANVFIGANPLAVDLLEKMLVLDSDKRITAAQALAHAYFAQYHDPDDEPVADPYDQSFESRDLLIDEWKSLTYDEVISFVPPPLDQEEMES

Compound: O=S(=O)(NCc1[nH]nc(-c2ccc(F)cc2)c1-c1ccncc1)c1c(Cl)cccc1Cl
inhibition: 43%

Compound: O=C(NCc1[nH]nc(-c2ccc(F)cc2)c1-c1ccncc1)c1ccco1
inhibition: 8%

Compound: C[C@@H](NS(=O)(=O)[C@@]12CC[C@H](CC1=O)C2(C)C)c1[nH]nc(-c2ccc(F)cc2)c1-c1ccncc1
inhibition: 54%

Compound: O=S(=O)(NCc1[nH]nc(-c2ccc(F)cc2)c1-c1ccncc1)c1ccc(F)cc1F
IC50: 2.17 µM

Compound: Cc1n[nH]c(-c2ccccc2)c1-c1ccncc1
IC50: 0.578 µM

Compound: CN(C)CCNc1cc(-c2c[nH]nc2-c2ccc(F)cc2)ccn1
IC50: 0.259 µM

Compound: COC(=O)CCCC(=O)NCc1[nH]nc(-c2ccc(F)cc2)c1-c1ccncc1
inhibition: 20%

Compound: O=C(NCc1[nH]nc(-c2ccc(F)cc2)c1-c1ccncc1)c1ccc(F)c(F)c1F
IC50: 3.27 µM

Compound: CN(C)CCn1cc(-c2ccnc(F)c2)c(-c2ccc(F)cc2)n1
IC50: 4.21 µM

Compound: O=S(=O)(NCc1[nH]nc(-c2ccc(F)cc2)c1-c1ccncc1)c1ccc(-c2ccccn2)s1
inhibition: 63%

Compound: Cc1ccc(-c2n[nH]c(C)c2-c2ccncc2)cc1
IC50: 0.274 µM

Compound: Cc1ccc(-c2[nH]nc(C)c2-c2ccncc2)c(C)c1
IC50: 1.05 µM

Compound: Fc1ccc(-c2nn(CCN3CCOCC3)cc2-c2ccncc2)cc1
IC50: 1.83 µM

Compound: O=C(NCc1[nH]nc(-c2ccc(F)cc2)c1-c1ccncc1)[C@@H]1CCCN1
inhibition: 22%

Compound: OCCn1cc(-c2ccnc(CCc3ccc(F)cc3)c2)c(-c2ccc(F)cc2)n1
IC50: 0.583 µM

Compound: CCS(=O)(=O)N[C@H](Cc1ccccc1)c1[nH]nc(-c2ccc(F)cc2)c1-c1ccncc1
inhibition: 5%

Compound: C[C@@H](NS(=O)(=O)c1ccc(S(=O)(=O)c2ccccc2)s1)c1[nH]nc(-c2ccc(F)cc2)c1-c1ccncc1
inhibition: 88%

Compound: Cc1c(C)c(S(=O)(=O)N[C@H](C)c2[nH]nc(-c3ccc(F)cc3)c2-c2ccncc2)c(C)c2c1OC(C)(C)CC2
inhibition: 68%

Compound: O=C(NCc1[nH]nc(-c2ccc(F)cc2)c1-c1ccncc1)C1CCC1
inhibition: 28%

Compound: O=S(=O)(c1c(F)cccc1F)N1CCC(c2[nH]nc(-c3ccc(F)cc3)c2-c2ccncc2)CC1
inhibition: 8%

Compound: O=C(NCc1[nH]nc(-c2ccc(F)cc2)c1-c1ccncc1)c1ccc(Cl)cc1
inhibition: 19%

Compound: COc1ccccc1CCNC(=O)Cn1nc(-c2ccc(F)cc2)c(-c2ccncc2)c1C
inhibition: 36%

Compound: O=C(NCc1[nH]nc(-c2ccc(F)cc2)c1-c1ccncc1)c1ccccn1
inhibition: 2%

Compound: O=C(NCCCc1[nH]nc(-c2ccc(F)cc2)c1-c1ccncc1)NCCCN1CCCC1=O
IC50: > 1 µM

Compound: O=C(NCc1[nH]nc(-c2ccc(F)cc2)c1-c1ccncc1)c1ccccc1Cl
inhibition: 55%

Compound: O=C(NCc1[nH]nc(-c2ccc(F)cc2)c1-c1ccncc1)c1ccccc1I
IC50: 2.97 µM

Compound: O=S(=O)(NCCCc1[nH]nc(-c2ccc(F)cc2)c1-c1ccncc1)c1cccc(Cl)c1Cl
inhibition: 18%

Compound: CNC(=O)CC[C@H](NC(=O)c1ccncc1)c1[nH]nc(-c2ccc(F)cc2)c1-c1ccncc1
inhibition: 8%

Compound: O=S(=O)(c1ccccc1)N1CCC(c2[nH]nc(-c3ccc(F)cc3)c2-c2ccncc2)CC1
inhibition: 21%

Compound: CCCCCCCC(=O)NCc1[nH]nc(-c2ccc(F)cc2)c1-c1ccncc1
inhibition: 4%

Compound: C[C@H](NS(=O)(=O)c1ccc(CNC(=O)c2ccccc2)s1)c1[nH]nc(-c2ccc(F)cc2)c1-c1ccncc1
inhibition: 83%

Compound: Cc1ccc(S(C)(=O)=O)cc1S(=O)(=O)NCc1[nH]nc(-c2ccc(F)cc2)c1-c1ccncc1
inhibition: 23%

Compound: O=C(c1ccc(I)cc1)N1CCC(c2[nH]nc(-c3ccc(F)cc3)c2-c2ccncc2)CC1
IC50: 0.27 µM

Compound: O=C(NCc1[nH]nc(-c2ccc(F)cc2)c1-c1ccncc1)Nc1ccc(C(F)(F)F)cc1
inhibition: 10%

Compound: O=S(=O)(c1ccc(Cl)cc1)N1CCC(c2[nH]nc(-c3ccc(F)cc3)c2-c2ccncc2)CC1
inhibition: 25%

Compound: COC(=O)CNc1n[nH]c(-c2ccc(F)cc2)c1-c1ccncc1
IC50: > 10 µM

Compound: CNC(=O)NCc1[nH]nc(-c2ccc(F)cc2)c1-c1ccncc1
inhibition: 30%

Compound: O=S(=O)(Cc1ccccc1)NCc1[nH]nc(-c2ccc(F)cc2)c1-c1ccncc1
IC50: 0.21 µM

Compound: O=S(=O)(N[C@H](Cc1ccccc1)c1[nH]nc(-c2ccc(F)cc2)c1-c1ccncc1)c1cccs1
inhibition: 29%

Compound: O=S(=O)(NCCc1[nH]nc(-c2ccc(F)cc2)c1-c1ccncc1)c1ccc(Cl)cc1Cl
inhibition: 31%

Compound: C[C@H](NS(=O)(=O)c1ccccc1S(C)(=O)=O)c1[nH]nc(-c2ccc(F)cc2)c1-c1ccncc1
inhibition: 73%

Compound: Cn1cc(-c2ccnc(CCc3ccc(F)cc3)c2)c(-c2ccc(F)cc2)n1
IC50: 0.327 µM

Compound: O=[N+]([O-])c1cccc(S(=O)(=O)NCc2[nH]nc(-c3ccc(F)cc3)c2-c2ccncc2)c1
IC50: 3.92 µM

Compound: CCCS(=O)(=O)N[C@H](Cc1ccccc1)c1[nH]nc(-c2ccc(F)cc2)c1-c1ccncc1
inhibition: 13%

Compound: O=C(O)c1ccccc1S(=O)(=O)NCCc1[nH]nc(-c2ccc(F)cc2)c1-c1ccncc1
inhibition: 40%

Compound: CC(=O)NCc1[nH]nc(-c2ccc(F)cc2)c1-c1ccncc1
IC50: 0.19 µM

Compound: CCS(=O)(=O)N[C@@H](CCC(=O)NC)c1[nH]nc(-c2ccc(F)cc2)c1-c1ccncc1
inhibition: 13%

Compound: O=C(NCc1[nH]nc(-c2ccc(F)cc2)c1-c1ccncc1)c1ccc(Cl)nc1
inhibition: 15%

Compound: N#Cc1cccc(C(=O)NCCc2[nH]nc(-c3ccc(F)cc3)c2-c2ccncc2)c1
inhibition: 7%

Compound: N#Cc1ccc(S(=O)(=O)N2CCC(c3[nH]nc(-c4ccc(F)cc4)c3-c3ccncc3)CC2)cc1
inhibition: 24%

Compound: Cc1ccc(F)cc1S(=O)(=O)NCc1[nH]nc(-c2ccc(F)cc2)c1-c1ccncc1
inhibition: 24%

Compound: O=C(NCc1[nH]nc(-c2ccc(F)cc2)c1-c1ccncc1)C(F)(F)F
inhibition: 67%

Compound: O=C(NCc1[nH]nc(-c2ccc(F)cc2)c1-c1ccncc1)C1CC1
IC50: 3.33 µM

Compound: C[C@H](NS(=O)(=O)c1ccc(Cl)cc1Cl)c1[nH]nc(-c2ccc(F)cc2)c1-c1ccncc1
inhibition: 88%

Compound: O=S(=O)(NCc1[nH]nc(-c2ccc(F)cc2)c1-c1ccncc1)c1ccc(Cl)cc1
inhibition: 37%

Compound: CCCCOc1ccc(S(=O)(=O)NCc2[nH]nc(-c3ccc(F)cc3)c2-c2ccncc2)cc1
inhibition: 31%

Compound: C[C@@H](NS(=O)(=O)c1ccccc1C(F)(F)F)c1[nH]nc(-c2ccc(F)cc2)c1-c1ccncc1
inhibition: 70%

Compound: O=C(NCCCc1[nH]nc(-c2ccc(F)cc2)c1-c1ccncc1)NCCc1c[nH]cn1
IC50: > 1 µM

Compound: Cc1[nH]nc(-c2ccc(Cl)cc2)c1-c1ccncc1
IC50: 0.201 µM

Compound: C[C@@H](NS(=O)(=O)c1ccc(-c2ccccc2)cc1)c1[nH]nc(-c2ccc(F)cc2)c1-c1ccncc1
inhibition: 95%

Compound: O=S(=O)(NCc1[nH]nc(-c2ccc(F)cc2)c1-c1ccncc1)c1ccccc1Br
inhibition: 68%

Second part, the molecule after the results:

inhibition: 45%
Compound: C[C@H](NC(=O)c1ccc(F)cc1F)c1[nH]nc(-c2ccc(F)cc2)c1-c1ccncc1

inhibition: 90%
Compound: C[C@@H](NS(=O)(=O)c1ccc(C#N)cc1)c1[nH]nc(-c2ccc(F)cc2)c1-c1ccncc1

inhibition: 76%
Compound: COc1ccc(Cl)cc1S(=O)(=O)N[C@@H](C)c1[nH]nc(-c2ccc(F)cc2)c1-c1ccncc1

inhibition: 18%
Compound: C[C@H](NC(=O)c1ccc(F)c(F)c1F)c1[nH]nc(-c2ccc(F)cc2)c1-c1ccncc1

inhibition: 30%
Compound: C[C@@H](NC(=O)N(C)c1ccccc1)c1[nH]nc(-c2ccc(F)cc2)c1-c1ccncc1

inhibition: 67%
Compound: C[C@@H](NC(=O)c1cc(F)ccc1F)c1[nH]nc(-c2ccc(F)cc2)c1-c1ccncc1

inhibition: 64%
Compound: CC(=O)Nc1ccc(S(=O)(=O)N[C@H](C)c2[nH]nc(-c3ccc(F)cc3)c2-c2ccncc2)cc1

IC50: > 1 µM
inhibition: 21%
Compound: COc1ccc(CC(=O)N[C@H](Cc2ccccc2)c2[nH]nc(-c3ccc(F)cc3)c2-c2ccncc2)cc1OC

IC50: 0.9 µM
Compound: C[C@@H](NS(=O)(=O)c1ccc(F)cc1)c1[nH]nc(-c2ccc(F)cc2)c1-c1ccncc1

inhibition: 47%
Compound: C[C@H](NC(=O)[C@@H]1CCCN1)c1[nH]nc(-c2ccc(F)cc2)c1-c1ccncc1

inhibition: 79%
Compound: C[C@H](NS(=O)(=O)c1cccc(Br)c1)c1[nH]nc(-c2ccc(F)cc2)c1-c1ccncc1

inhibition: 70%
Compound: C[C@@H](NC(=O)c1cccs1)c1[nH]nc(-c2ccc(F)cc2)c1-c1ccncc1

inhibition: 29%
Compound: COc1ccc(CC(=O)N[C@H](C)c2[nH]nc(-c3ccc(F)cc3)c2-c2ccncc2)cc1

inhibition: 68%
Compound: C[C@H](NC(=O)c1c(F)cc(F)cc1F)c1[nH]nc(-c2ccc(F)cc2)c1-c1ccncc1

inhibition: 80%
Compound: CCCCOc1ccc(S(=O)(=O)N[C@@H](C)c2[nH]nc(-c3ccc(F)cc3)c2-c2ccncc2)cc1

inhibition: 49%
Compound: CCN(CC)C(=O)N[C@H](C)c1[nH]nc(-c2ccc(F)cc2)c1-c1ccncc1

inhibition: 45%
Compound: CC(C)OC(=O)N[C@H](C)c1[nH]nc(-c2ccc(F)cc2)c1-c1ccncc1

inhibition: 3%
Compound: CNC(=O)CC[C@H](NC(=O)Cc1cccc(OC)c1)c1[nH]nc(-c2ccc(F)cc2)c1-c1ccncc1

inhibition: 95%
Compound: C[C@@H](NS(=O)(=O)c1ccc(Cl)s1)c1[nH]nc(-c2ccc(F)cc2)c1-c1ccncc1

IC50: 0.66 µM
Compound: C=CCOC(=O)N[C@H](C)c1[nH]nc(-c2ccc(F)cc2)c1-c1ccncc1

inhibition: 39%
Compound: Cc1cc(C)c(C(=O)N[C@@H](C)c2[nH]nc(-c3ccc(F)cc3)c2-c2ccncc2)c(C)c1

inhibition: 27%
Compound: C[C@@H](NC(=O)c1cccc(Br)c1)c1[nH]nc(-c2ccc(F)cc2)c1-c1ccncc1

inhibition: 22%
Compound: C[C@H](NC(=O)c1cccc(C#N)c1)c1[nH]nc(-c2ccc(F)cc2)c1-c1ccncc1

IC50: > 1 µM
Compound: CC(C)C(=O)N[C@H](Cc1ccccc1)c1[nH]nc(-c2ccc(F)cc2)c1-c1ccncc1

inhibition: 40%
Compound: CC(C)C(=O)N[C@H](C)c1[nH]nc(-c2ccc(F)cc2)c1-c1ccncc1

inhibition: 52%
Compound: C[C@H](NC(=O)c1ccc(F)c(F)c1)c1[nH]nc(-c2ccc(F)cc2)c1-c1ccncc1

inhibition: 12%
Compound: C[C@@H](NC(=O)C1CCCC1)c1[nH]nc(-c2ccc(F)cc2)c1-c1ccncc1

IC50: 0.74 µM
Compound: CCOC(=O)N[C@H](C)c1[nH]nc(-c2ccc(F)cc2)c1-c1ccncc1

inhibition: 51%
Compound: C[C@H](NC(=O)N(C)c1ccccc1)c1[nH]nc(-c2ccc(F)cc2)c1-c1ccncc1

inhibition: 93%
Compound: Cc1ccc(C)c(S(=O)(=O)N[C@H](C)c2[nH]nc(-c3ccc(F)cc3)c2-c2ccncc2)c1
